# Data published in patent publication US8017350B2, “Glimepiride- and insulin-induced glycosylphosphatidylinositol-specific phospholipase C regulation” (Sanofi-Aventis Deutschland GmbH, priority 2004, dated 2011).
# Tests used:
# [1] = biological target: T1, porcine pancreatic lipase (PL) (Sus scrofa, UniProt P00591); experiment: pancreatic lipase assay (tributyrin, pH stat); assay type: biochemical; conditions: 50 μM
# T1 construct: crude porcine pancreatic lipase (PL); purchased SigmalAldrich (Deisenhofen, Germany); host or cells: porcine pancreas (crude preparation)
# T1 sequence (P00591 whole entry): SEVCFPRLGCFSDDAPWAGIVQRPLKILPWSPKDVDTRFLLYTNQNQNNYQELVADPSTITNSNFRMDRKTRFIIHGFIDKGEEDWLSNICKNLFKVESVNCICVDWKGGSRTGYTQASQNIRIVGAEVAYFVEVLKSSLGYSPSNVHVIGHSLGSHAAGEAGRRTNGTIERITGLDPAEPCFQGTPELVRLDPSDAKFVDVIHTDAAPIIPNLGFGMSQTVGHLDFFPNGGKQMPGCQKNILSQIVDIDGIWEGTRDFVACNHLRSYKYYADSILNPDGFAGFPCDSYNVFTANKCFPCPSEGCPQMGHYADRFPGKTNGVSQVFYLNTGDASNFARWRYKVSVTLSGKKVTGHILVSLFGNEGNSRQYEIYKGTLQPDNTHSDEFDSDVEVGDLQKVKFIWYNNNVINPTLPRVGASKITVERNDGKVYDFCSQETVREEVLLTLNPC
# T1 sequence (P02703 23-112 partner): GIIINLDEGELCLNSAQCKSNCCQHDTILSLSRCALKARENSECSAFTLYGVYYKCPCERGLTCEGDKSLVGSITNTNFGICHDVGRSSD
# Procedure: (§1) Hormone-sensitive lipase (HSL) and lipoprotein lipase (LPL) were measured using a radiolabeled triolein droplet emulsion as described in “Vertesy et al., (2002) Journal Antibiotics 55:480-494”. Pancreatic lipase (PL) was determined by incubation of 0.25 mmol tributyrin in 2 ml of 5 mM Tris/HCl (pH 6.5), 6 mM sodium taurodeoxycholate, 150 mM NaCl, 1 mM CaCl2 with porcine PL and colipase in the same buffer using a recording pH stat (stirring at 1000 rpm at 25° C.) with the pH adjusted to 6.5. PC-PLC was assayed by incubation of 0.2 ml of 10 mM dipalmitoyllecithin, 0.1 ml of 10 mM SDC and 0.1 ml of 0.03 M CaCl2 with bacterial PC-PLC (in 50 mM Tris/HCl, pH 7.5, 0.1% BSA) for 10 min at 37° C. The reaction was terminated by addition of 0.1 ml of 50% TCA and subsequently of 2.5 ml of […]. After centrifugation (1500×g, 15 min), 0.2-ml portions of the upper methanol/water phase (˜1.33 ml) were removed, supplemented with 0.5 ml of 60% HClO4, then heated at 170° C. for 1 h and finally analyzed for inorganic phosphate. Mammalian PI-PLC was measured by incubation of 0.1 ml of 10 mM PI, 0.1 ml of 0.8% sodium deoxycholate, 0.1% BSA, 0.2 ml of 100 mM sodium borate (pH 7.5) and rat liver PI-PLC for 20 min at 37° C. The reaction was terminated and further processed as described for the PC-PLC. […] Radioactive phosphatidic acid was detected by phosphorimaging. […]
# isolated rat adipocytes = experiment: isoproterenol-induced lipolysis (glycerol release); assay type: cell-based
# Procedure: Electroporation was performed as described in “Müller, G. et al., (2000) Mol. Cell. Biol. 20: 4708-4723”. Lipolysis was determined as release of glycerol or fluorescent NBD-FA from prelabeled and isoproterenol-stimulated adipocytes as described in “Müller, G. et al., (2003) Biochimie 85: 1245-1256”. Gce1 was detected by photolabeling of solubilized plasma membranes or hc/lcDIGs (10-50 μg protein) with 8-N3—[^32P]cAMP and subsequent phosphorimaging as described in “Müller, G. et al., (1994) Biochemistry 33: 12149-12159”. 5′-Nuc, aP and AChE activities were measured according to “Eliakim, R. et al., (1990) Biochim. Biophys. Acta 1355: 293-302”. Protein was determined using the BCA protein determination kit from Pierce (Rockford, Ill.) and BSA as calibration standard. SDS-PAGE was performed using precast gels (Novex, San Diego, Calif.; 10% Bis-Tris resolving gel, morpholinopropanesulfonic acid-SDS running buffer). Lumiimages were evaluated on a LumiImager using LumiImager software (Roche Diagnostics). Phosphor- and fluorescence images were processed and quantified using the Storm 860 PhosphorImager system (Molecular Dynamics, Gelsenkirchen, Germany). Figures were constructed using the ADOBE PHOTOSHOP software (Adobe Systems, Mountain View, Calif.).
# FIG. 8: Effect of GPI-2350 on the glimepiride/insulin-induced metabolic activity. […]
# cabbage PLD = experiment: PLD assay ([14C]phosphatidylcholine); assay type: biochemical; conditions: 50 μM
# Procedure: as §1
# [2] = biological target: T2, bacterial PC-PLC (Bacillus cereus) (Bacillus cereus, UniProt P09598); experiment: PC-PLC assay (dipalmitoyllecithin); assay type: biochemical; conditions: 50 μM
# T2 construct: purchased SigmalAldrich (Deisenhofen, Germany)
# T2 sequence (P09598 39-283 limits assumed): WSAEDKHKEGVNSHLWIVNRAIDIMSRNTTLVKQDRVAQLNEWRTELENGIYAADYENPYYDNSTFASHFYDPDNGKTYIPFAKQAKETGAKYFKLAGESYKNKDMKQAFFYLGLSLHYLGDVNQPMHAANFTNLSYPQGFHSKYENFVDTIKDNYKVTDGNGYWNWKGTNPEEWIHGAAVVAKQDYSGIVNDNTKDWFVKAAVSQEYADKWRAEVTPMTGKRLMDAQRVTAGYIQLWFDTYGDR
# Procedure: as §1
smiles,measurement,setting,value
"CCCCCCCCCCCCP1(=O)O[C@@H]2[C@H](O)[C@@H](O)[C@H](O)[C@@H](O)[C@@H]2O1 (some centres unmarked) [GPI-2350, myo-inositol-1,2-cyclo-dodecylphosphonic acid]",effect on PL,[1],not significantly affected
same,effect on insulin inhibition of lipolysis,isolated rat adipocytes,only marginally reduced
same,effect on inhibition of lipolysis in response to glimepiride,isolated rat adipocytes; 50 μM,almost complete blockade
same,effect on PLD,cabbage PLD,not significantly affected
same,effect on PC-PLC,[2],not significantly affected
